Measured values published in patent publication US20250312407A1, “PEPTIDE AND USE THEREOF” (AJINOMOTO CO., INC., priority 2019, published 2025).

Key:
Assay type in all cases: in vivo, mouse
male KK-Ay mice [1] = assay: Intestine permeability (plasma FD-4 after oral FITC-dextran); conditions: 100 mg/kg oral, vs vehicle group
Protocol: The administration medium (0.5% methylcellulose; vehicle) or compound 1 (100 mg/kg) was orally administered to male KK-Ay mice (11 weeks old) that had been fasted from 10 o'clock the day before, and FITC-dextran (FD-4) (300 mg/kg) was orally administered 1 hr later. Blood was collected from the tail vein 1 hr and 2 hr after FD-4 administration, and the plasma FD-4 concentration was measured.

acetyl-L-carnitine = assay: Anti-stress, neuroprotective action (plasma acetyl-L-carnitine after restraint stress); conditions: 30 mg/kg oral after 3 hr restraint stress, C57BL/6J mice, 120 min after administration, vs vehicle group
From the text: Male C57BL/6J mice (9-week-old) that had been under fasting treatment overnight were housed in a restraint stress cage for mice, and allowed to stand for 3 hr. […] Acetyl-L-carnitine is an endogenous metabolite known to have an anti-stress and neuroprotective action (e.g., Nasca C et al., “L-acetylcarnitine causes rapid antidepressant effects through the epigenetic induction of mGlu2 receptors”, Proc. Natl. Acad. Sci. USA, 2013 Mar. 19; 110 (12): 4804-4809; and Kazak F et al., “Neuroprotective effects of acetyl-1-carnitine on lipopolysaccharide-induced neuroinflammation in mice: Involvement of brain-derived neurotrophic factor”, Neuroscience Letters, 2017 Sep. 29; 658:32-36, which are incorporated herein by reference in their entireties).

FGF21 = FGF21 secretion promoting action (plasma FGF21 concentration); conditions: 30 mg/kg by gavage, C57BL/6J mice, portal vein, 120 min after administration, vs vehicle group
Protocol: The administration medium (0.5% methylcellulose; vehicle) or compound 1 (30 mg/kg) was administered by gavage to male C57BL/6J mice (8 weeks old) that had been under fasting treatment for 6 hr. Blood was collected from the portal vein before administration and 120 min after administration, and the plasma FGF21 concentration was measured.

male C57BL/6J mice = assay: Oral glucose tolerance test (OGTT); conditions: 30 mg/kg oral
Protocol: The administration medium (0.5% methylcellulose; vehicle) or compound 1 (30 mg/kg) was orally administered to male C57BL/6J mice (7 weeks old) that had been fasted from 17 o'clock the day before, and 2 g/kg of glucose was orally administered by gavage 1 hr later. Blood was collected from the tail vein before administration, and 15, 30, 60, 120 and 180 min after administration, and the blood glucose level was measured.
The blood glucose level after glucose loading remained low in the compound 1 administration group from 30 min after loading and thereafter. The results of the area under curve (ΔAUC) of the blood glucose level profile calculated with the 0-minute value as the standard are shown in FIG. 2.

[2] = test system: ornithine/citrulline ratio; assay: Anti-fatigue action (plasma ornithine/citrulline ratio); conditions: 30 mg/kg by gavage, C57BL/6J mice, portal vein, 120 min after administration, vs vehicle group
Protocol: The administration medium (0.5% methylcellulose; vehicle) or compound 1 (30 mg/kg) was administered by gavage to male C57BL/6J mice (7 weeks old) that had been under fasting treatment overnight. Blood was collected from the portal vein 120 min after administration, and the plasma ornithine and citrulline concentrations were measured. The ornithine/citrulline ratio in plasma is known as a biomarker that increases during fatigue such as chronic fatigue syndrome and the like (e.g., Yamano E et al., “Index markers of chronic fatigue syndrome with dysfunction of TCA and urea cycles”, Scientific Reports, 2016 Oct. 11; 6:34990, doi: 10.1038/srep34990, which is incorporated herein by reference in its entirety).

male KK-Ay mice [3] = assay: Insulin tolerance test (ITT); conditions: 30 mg/kg oral, insulin 0.5 U/kg s.c. 1 hr later, profile and ΔAUC vs vehicle group
Protocol: The administration medium (0.5% methylcellulose; vehicle) or compound 1 (30 mg/kg) was orally administered to male KK-Ay mice (7 to 12 weeks old) that had been fasted from 17 o'clock the day before, and insulin (0.5 U/kg) was subcutaneously administered 1 hr later. Blood was collected from the tail vein before administration, and 15, 30, 60, 120 and 180 min after administration, and the blood glucose level was measured. The blood glucose level was also measured for compounds 2 to 6 by a similar method. The results of the area under curve (ΔAUC) of the blood glucose level profile calculated with the 0-minute value as the standard are shown in FIG. 3(b).

In the case of “LIVTQTMKGL (Designed peptide) [compound 1]”, the “blood FD-4 concentration” value (male KK-Ay mice [1]; 1 hr after oral FD-4 (300 mg/kg)) was “suppression of an increase in the blood FD-4 concentration was observed”, the “blood FD-4 concentration” value (male KK-Ay mice [1]; 2 hr after oral FD-4 (300 mg/kg)) was “suppression of an increase in the blood FD-4 concentration was observed” and the “blood acetyl-L-carnitine concentration” value (acetyl-L-carnitine) was “increase in the blood acetyl-L-carnitine concentration was observed”. The “blood FGF21 concentration” value (FGF21) was “increase in the blood FGF21 concentration was confirmed”, the “area under curve (ΔAUC) of the blood glucose level profile, OGTT” value (male C57BL/6J mice; 0-minute value as the standard, vs vehicle group) was “low value as compared with the vehicle group” and the “blood glucose level after glucose loading” value (male C57BL/6J mice; 2 g/kg glucose 1 hr later, from 30 min after loading) was “remained low”. For the same sequence, the blood ornithine/citrulline ratio [2] was “decreased” and the “blood glucose level after insulin (insulin sensitivity improving effect), ITT” value (male KK-Ay mice [3]) was “significant decrease in blood glucose”.
